This note sets out measurements from paper PMC8286840, “Identifying SARS-CoV-2 antiviral compounds by screening for small molecule inhibitors of Nsp3 papain-like protease” (Biochemical Journal, 2021).

The structures appear in SMILES notation. Structures can show the parent of a compound that is named as a salt. Where two headings read alike, the source gives them in different places.

In assay [1] the target is T1, SARS-CoV-2 PLpro (nsp3 1564–1878) (Severe acute respiratory syndrome coronavirus 2, UniProt P0DTD1). Briefly: biochemical. Particulars: low concentration screen, read-out: % of control remaining. Further details: FRET-quenched peptide (Pro3) cleavage by PLpro, 10 min pre-incubation, slope over 20 min, normalised to no-compound control.
The target of assay [2] is T1, SARS-CoV-2 PLpro (nsp3 1564–1878). The experiment in a line: biochemical. Particulars: high concentration screen, read-out: % of control remaining. More on the design: FRET-quenched peptide (Pro3) cleavage by PLpro, 10 min pre-incubation, slope over 20 min, normalised to no-compound control.

`Cc1c(C(=O)O)c(O)cc2c1C(=O)c1c(O)c([C@@H]3O[C@H](CO)[C@@H](O)[C@H](O)[C@H]3O)c(O)c(O)c1C2=O` [Carminic acid]: the remaining activity at 1.25 µM in assay [1] (Well no.=3101) came out at 102%. For the same molecule, in assay [2] (Well no.=3101), the remaining activity at 3.75 µM was found to be 103%.
Regarding `CC(=O)NCCOC(=O)[C@H](Oc1cccc(C(F)(F)F)c1)c1ccc(Cl)cc1` [2-(acetylamino)ethyl (2R)-(4-chlorophenyl)[3-(trifluoromethyl)phenoxy]ethanoate], in assay [1] (Well no.=6055), the remaining activity at 1.25 µM came out at 100%. In addition, in assay [2] (Well no.=6055), the remaining activity at 3.75 µM was determined as 97.1%.
Take `CC1=C(C(=O)O)N2C(=O)[C@@H](NC(=O)[C@H](N)C3=CCC=CC3)[C@H]2SC1` [Cephradine]: the remaining activity at 1.25 µM in assay [1] (Well no.=236) was found to be 98.9%. Moreover, the remaining activity at 3.75 µM in assay [2] (Well no.=236) is 100%.
On to `NCCc1ccc(O)c(O)c1` [Dopamine hydrochloride], for which, in assay [1] (Well no.=518), the remaining activity at 1.25 µM turned out to be 102%. Also, the remaining activity at 3.75 µM in assay [2] (Well no.=518) amounted to 99.9%.
Consider `NC[C@@H](O)c1ccc(O)c(O)c1` [L(-)-Norepinephrine bitartrate], for which, in assay [1] (Well no.=58), the remaining activity at 1.25 µM turned out to be 102%. The remaining activity at 3.75 µM in assay [2] (Well no.=58) amounted to 99.2%.
Consider `NCCCNCCS` [WR-1065 dihydrochloride], for which the remaining activity at 1.25 µM in assay [1] (Well no.=6786) was determined as 94.6%. Also, the remaining activity at 3.75 µM in assay [2] (Well no.=6786) worked out at 94.3%.
On to `COc1ccc(CCN2CCN(CCCc3ccccc3)CC2)cc1OC` [SA4503 (dihydrochloride)], for which the remaining activity at 1.25 µM in assay [1] (Well no.=6991) is 101%. Moreover, the remaining activity at 3.75 µM in assay [2] (Well no.=6991) is 102%.
For `CS(=O)(=O)n1cc2c(n1)CN([C@H]1CO[C@H](c3cc(F)ccc3F)[C@@H](N)C1)C2` [Omarigliptin (MK-3102)], the remaining activity at 1.25 µM in assay [1] (Well no.=8824) was 98.1%. In addition, the remaining activity at 3.75 µM in assay [2] (Well no.=8824) was 96.5%.
Take `CN(C)[C@@H]1C(O)=C(C(N)=O)C(=O)[C@@]2(O)C(O)=C3C(=O)c4c(O)cccc4[C@@](C)(O)[C@H]3C[C@@H]12` [Tetracycline]: the remaining activity at 1.25 µM in assay [1] (Well no.=1948) was found to be 95.4%. In addition, in assay [2] (Well no.=1948), the remaining activity at 3.75 µM came to 93.7%.
As to `O=C(O)c1cccnc1` [Niacin], in assay [1] (Well no.=6401), the remaining activity at 1.25 µM amounted to 102%. Further, in assay [2] (Well no.=6401), the remaining activity at 3.75 µM was 96.9%.
In the case of `O=S(=O)(NCCSSCCNS(=O)(=O)c1cc(Cl)ccc1Cl)c1cc(Cl)ccc1Cl` [KC7F2], the remaining activity at 1.25 µM in assay [1] (Well no.=8580) amounted to 107%. The remaining activity at 3.75 µM in assay [2] (Well no.=8580) is 102%.
`CCCCCCCCCCCCCCC(=O)O` [Pentadecanoic acid]: the remaining activity at 1.25 µM in assay [1] (Well no.=4588) was determined as 95%; in assay [1] (Well no.=7021), 110%. Also, the remaining activity at 3.75 µM in assay [2] (Well no.=4588) was found to be 95.6%; in assay [2] (Well no.=7021), 103%.
Regarding `COC(=O)c1ccc(O)c2nc3c(C=O)c(O)cc(O)c3nc12` [Lomofungin], the remaining activity at 1.25 µM in assay [1] (Well no.=1551) was found to be 102%. The remaining activity at 3.75 µM in assay [2] (Well no.=1551) turned out to be 102%.
For the molecule `COc1cc2c(cc1OC)CC(=O)N(CCCN(C)C[C@H]1Cc3cc(OC)c(OC)cc31)CC2` [Ivabradine hydrochloride], in assay [1] (Well no.=5419), the remaining activity at 1.25 µM was found to be 104%. The remaining activity at 3.75 µM in assay [2] (Well no.=5419) was determined as 106%.
As for `CC(C)c1cc(-c2n[nH]c(=O)n2-c2ccc3c(ccn3C)c2)c(O)cc1O` [Ganetespib (STA-9090)], the remaining activity at 1.25 µM in assay [1] (Well no.=9028) was 85.9%. Also, the remaining activity at 3.75 µM in assay [2] (Well no.=9028) came out at 86.1%.
Regarding `O=C(COc1ccc(C(=O)c2ccccc2)cc1)NC1CCN(Cc2ccccc2)CC1` [2-(4-benzoylphenoxy)-N-(1-benzyl-4-piperidinyl)acetamide], the remaining activity at 1.25 µM in assay [1] (Well no.=5650) came to 101%. Also, the remaining activity at 3.75 µM in assay [2] (Well no.=5650) is 98.9%.
With `Nc1ncnc2c1ccn2[C@@H]1O[C@H](CO)[C@@H](O)[C@H]1O` [Tubercidin], the remaining activity at 1.25 µM in assay [1] (Well no.=8060) came to 96.1%. Besides, the remaining activity at 3.75 µM in assay [2] (Well no.=8060) came out at 95.7%.
For `Cc1nc(-c2ccccc2)c(-c2ccncc2)o1` [SC-68376], the remaining activity at 1.25 µM in assay [1] (Well no.=2650) was 96.3%. For the same molecule, the remaining activity at 3.75 µM in assay [2] (Well no.=2650) was found to be 102%.
